Results taken from patent US20020177594A1, “Inhibitors of histone deacetylase” (priority 2001, published 2002).

SMILES | melting point [°C]
O=C(NCCCCCC(=O)C(F)(F)F)OCC1c2ccccc2-c2ccccc21 [Example 89, 9H-fluoren-9-ylmethyl 7,7,7-trifluoro-6-oxoheptylcarbamate] | 83 to 88
O=C(CCCCCCSc1ccccc1)c1ncco1 [Example 102, 1-(1,3-oxazol-2-yl)-7-(phenylsulfanyl)-1-heptanone] | 39 to 40
O=C(CCCCCCS(=O)(=O)c1ccccc1)c1ncco1 [Example 103, 1-(1,3-oxazol-2-yl)-7-(phenylsulfonyl)-1-heptanone] | 55 to 56
O=C(CCCCCCSc1ccc2ccccc2c1)c1ncco1 [Example 104, 7-(2-naphthylsulfanyl)-1-(1,3-oxazol-2-yl)-1-heptanone] | 65 to 66
O=C(CCCCCCS(=O)(=O)c1ccc2ccccc2c1)c1ncco1 [Example 105, 7-(2-naphthylsulfonyl)-1-(1,3-oxazol-2-yl)-1-heptanone] | 75 to 76
O=C(NCCCCCCC(=O)c1ncco1)c1cc2ccccc2[nH]1 [Example 110, N-(7-(1,3-oxazol-2-yl)-7-oxoheptyl)-1H-indole-2-carboxamide] | 153 to 156
O=C(NCCCCCC(=O)c1ncco1)c1cc2ccccc2[nH]1 [Example 111, N-(6-(1,3-oxazol-2-yl)-6-oxohexyl)-1H-indole-2-carboxamide] | 176 to 179
CC(=O)C(=O)CCCCCCOc1ccc(-c2ccccc2)cc1 [Example 113, 9-((1,1′-biphenyl)-4-yloxy)-2,3-nonanedione] | 110 to 111

Results, then the molecule that gave them:

melting point [°C] | SMILES
94 to 95 | CNC(=O)C(=O)CCCCCCSc1ccc2ccccc2c1 [Example 106, N-methyl-8-(2-naphthylsulfanyl)-2-oxooctanamide]
108 to 109 | CNC(=O)C(=O)CCCCCCS(=O)(=O)c1ccc2ccccc2c1 [Example 107, N-methyl-8-(2-naphthylsulfonyl)-2-oxooctanamide]
131 to 132 | CNC(=O)C(=O)CCCCCCSc1ccc(-c2ccccc2)cc1 [Example 108, 8-((1,1′-biphenyl)-4-ylsulfanyl)-N-methyl-2-oxooctanamide]
107 to 108 | CNC(=O)C(=O)CCCCCCSc1nc(-c2ccccc2)cs1 [Example 183, N-methyl-2-oxo-8-((4-phenyl-1,3-thiazol-2-yl)thio)octanamide]
83 to 84 | CNC(=O)C(=O)CCCCCCSc1nc2ccccc2s1 [Example 184, 8-(1,3-benzothiazol-2-ylthio)-N-methyl-2-oxooctanamide]
70 to 72 | CNC(=O)C(=O)CCCCCCc1csc(-c2ccccc2)n1 [Example 196, N-methyl-2-oxo-8-(2-phenyl-1,3-thiazol-4-yl)octanamide]
86 to 87 | CNC(=O)C(=O)CCCCCO/N=C/c1ccc(-c2ccccc2)cc1 [Example 198, 7-((((1E)-1,1′-biphenyl-4-ylmethylidene)amino)oxy)-N-methyl-2-oxoheptanamide]
78 to 80 | CNC(=O)C(=O)CCCCCCc1cnc(-c2ccccc2)o1 [Example 199, N-methyl-2-oxo-8-(2-phenyl-1,3-oxazol-5-yl)octanamide]
90 to 92 | CNC(=O)C(=O)CCCCCCc1cnc(-c2ccc(Br)cc2)o1 [Example 217, 8-(2-(4-bromophenyl)-1,3-oxazol-5-yl)-N-methyl-2-oxooctanamide]
77 to 81 | CNC(=O)C(=O)CCCCCCc1csc(-c2ccc(Cl)cc2)n1 [Example 218, 8-(2-(4-chlorophenyl)-1,3-thiazol-4-yl)-N-methyl-2-oxooctanamide]
